ChEMBL document CHEMBL3804753, “Substituted quinolines as noncovalent proteasome inhibitors” (Bioorg Med Chem, 2016)
Calls of active or inactive are those of the source. No cut-off for these calls is given here.

Biological target: T1, Proteasome Macropain subunit MB1 (Homo sapiens) (UniProt P28074)
T1 sequence (whole entry): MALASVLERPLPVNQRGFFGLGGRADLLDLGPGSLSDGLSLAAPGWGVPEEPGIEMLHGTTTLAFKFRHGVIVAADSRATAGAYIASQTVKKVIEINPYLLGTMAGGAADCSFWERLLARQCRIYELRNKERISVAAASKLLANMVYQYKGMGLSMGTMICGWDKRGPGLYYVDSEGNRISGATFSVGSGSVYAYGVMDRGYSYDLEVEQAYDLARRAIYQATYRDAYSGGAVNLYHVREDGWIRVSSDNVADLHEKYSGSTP
Test: Inhibition of human 20S proteasome chymotryptic-like activity using Suc-LLVY-AMC as substrate assessed as fluorescence quinching control by fluorescence assay

inhibition: inactive
Compound: Cc1cc(C)c2cc(-c3ccccc3)c(-c3ccccc3)nc2c1
